Molecules are shown by their SMILES. The source made the active and inactive calls. The rule behind the calls is not given here.

The subject of assay [1] is Avian myeloblastosis virus. Nature of the assay: Inhibition of AMV reverse transcriptase assessed as [3H]dGTP incorporation at 5 ug by toluene-based scintillation fluid counting in presence of poly rC.oligo dG template primer.
Assay [2] concerns JLS-V9. Nature of the assay: Inhibition of reverse transcriptase from Rauscher murine leukemia virus propagated in JLS-V9 cells at 5 to 10 ug/ml. It counts as cell-based.
Assay [3] relates to Avian myeloblastosis virus. Nature of the assay: Inhibition of AMV reverse transcriptase assessed as [3H]TTP incorporation by toluene-based scintillation fluid counting in presence of 0.50 umole MnCl2.
Assay [4] relates to JLS-V9. The assay can be described thus: Inhibition of reverse transcriptase from Rauscher murine leukemia virus propagated in JLS-V9 cells at 40 to 60 ug/ml. Format: cell-based.
Assay [5] concerns Avian myeloblastosis virus. The assay can be described thus: Inhibition of AMV reverse transcriptase assessed as [3H]TTP incorporation by toluene-based scintillation fluid counting in presence of 0.10 umole MnCl2.
For assay [6], the system named is Avian myeloblastosis virus. Nature of the assay: Inhibition of AMV reverse transcriptase assessed as [3H]TTP incorporation at 5 ug by toluene-based scintillation fluid counting in presence of 70S RNA template primer.
Assay [7] relates to Avian myeloblastosis virus. The assay can be described thus: Inhibition of AMV reverse transcriptase assessed as [3H]TTP incorporation at 5 ug by toluene-based scintillation fluid counting in presence of poly rA.oligo dT template primer.
Assay [8] relates to Avian myeloblastosis virus. Nature of the assay: Inhibition of AMV reverse transcriptase assessed as [3H]TTP incorporation at 5 ug by toluene-based scintillation fluid counting in presence of poly dA.oligo dT template primer.
In assay [9] the test system is Avian myeloblastosis virus. The assay can be described thus: Inhibition of AMV reverse transcriptase assessed as [3H]TTP incorporation at 5 ug by toluene-based scintillation fluid counting in presence of activated DNA template primer.
In assay [10] the test system is Avian myeloblastosis virus. Nature of the assay: Inhibition of AMV reverse transcriptase at 45 to 50 ug/ml.
Assay [11] concerns Avian myeloblastosis virus. Nature of the assay: Inhibition of AMV reverse transcriptase assessed as [3H]TTP incorporation at 5 ug by toluene-based scintillation fluid counting in presence of 2 to 20 ug poly rA.oligo dT template primer.
The test system of assay [12] is Avian myeloblastosis virus. Nature of the assay: Inhibition of AMV reverse transcriptase assessed as [3H]TMP incorporation by toluene-based scintillation fluid counting.
The subject of assay [13] is JLS-V9. The assay can be described thus: Inhibition of reverse transcriptase from MuLV propagated in JLS-V9 cells at 30 to 40 ug/ml. The note with it: Rauscher murine leukemia virus. It counts as cell-based.
Assay [14] relates to Avian myeloblastosis virus. The assay can be described thus: Inhibition of AMV reverse transcriptase at 30 to 40 ug/ml.
For assay [15], the system named is Avian myeloblastosis virus. Nature of the assay: Inhibition of AMV reverse transcriptase at 6 to 12 ug/ml.
Assay [16] relates to Avian myeloblastosis virus. Nature of the assay: Inhibition of AMV reverse transcriptase assessed as [3H]TTP incorporation at 5 ug by toluene-based scintillation fluid counting in presence of template primer.
The subject of assay [17] is JLS-V9. Nature of the assay: Inhibition of reverse transcriptase from Rauscher murine leukemia virus propagated in JLS-V9 cells at 6 to 18 ug/ml. Format: cell-based.
In assay [18] the test system is Avian myeloblastosis virus. The assay can be described thus: Inhibition of AMV reverse transcriptase at 12 to 18 ug/ml.
Assay [19] concerns Avian myeloblastosis virus. Nature of the assay: Inhibition of AMV reverse transcriptase at 50 to 60 ug/ml.
For assay [20], the system named is Avian myeloblastosis virus. The assay can be described thus: Inhibition of AMV reverse transcriptase at 40 to 50 ug/ml.

In general, inhibition refers to how much of the control response was suppressed. Consider `COc1cc2ccc3c4cc5c(cc4c(OC)[n+](C)c3c2cc1OC)OCO5`, for which the inhibition in [1] stood at 2%; in assay [6], 92%; in assay [7], 95%; in [8], 94%; in assay [9], 93%; in assay [10] it was 50%. For the same compound, the outcome (in the assay with JLS-V9 [2]; in assay [3]; with JLS-V9 [4]; in [5]) was Active. The result in assay [11] was inactive.

`COc1cc2c(ccc3c4cc(OC)c(OC)cc4c[n+](C)c23)cc1O`: the outcome (in assay [1]; in [12]; with JLS-V9 [2]; in assay [3]; in assay [5]; in assay [16]) was Active. The result in the assay on JLS-V9 [17] was Active. In addition, the inhibition with JLS-V9 [13] is above 90%; in assay [14], above 90%; in assay [15] it was 50%. The result in assay [11] was inactive.

As for `COc1cc2ccc3c4cc(OC)c(OC)cc4c(OC)[n+](C)c3c2cc1OC`, the inhibition in assay [1] is 3%; in the assay with JLS-V9 [13] it was above 90%; in [14], above 90%; in assay [6] it was 95%; in [7] it was 98%; in assay [8] it was 97%. Moreover, the inhibition in [9] was determined as 96%; in assay [18], 50%. Further, the outcome (in the assay on JLS-V9 [2]; in assay [3]; in assay [5]; in the assay on JLS-V9 [17]) was Active. The outcome in [11] was inactive.

As to `COc1cc2c(cc1OC)C(OC)N(C)c1c-2ccc2cc3c(cc12)OCO3.O=C(O)Br` (stereo not given), the inhibition came out at 2% in [1]; 50% in [19]; 91% in assay [6]; 94% in assay [7]; 93% in assay [8]; 92% in assay [9]. Also, the result (in the assay on JLS-V9 [2]; in assay [3]; in the assay with JLS-V9 [4]; in assay [5]) was Active. Further, in assay [11], the outcome was inactive.

With `COc1cc2c[n+](C)c3c4cc5c(cc4ccc3c2cc1OC)OCO5`, the outcome (in assay [1]; in [12]; in the assay on JLS-V9 [2]; in assay [3]; with JLS-V9 [4]; in [5]) was Active. For the same compound, the outcome in [16] was Active. Besides, in assay [20], the inhibition stood at 50%. For the same compound, the result in assay [11] was inactive.

The record behind these values is ChEMBL document CHEMBL1158150, “Inhibition of reverse transcriptase activity by benzophenanthridine alkaloids” (J Nat Prod, 1979).
